# Patent US12005056B2, “Centrally-active ghrelin agonist and medical uses thereof” (Helsinn Healthcare SA, priority 2018, dated 2024)
# “Also recorded” adds a separate entry of the source. Where two headings read alike, the source gives them in different places.
# Columns and labels:
# [1] = dog, in vivo
# [2] = test system: bortezomib-treated Wistar rats; experiment: Bortezomib study, prevention paradigm; type: in vivo; settings: for Allodynia / Body Weight / DRG/nerve pathology / IENFD / NCS: Bortezomib Preventive setting, 0.2 mg/kg (i.v.) 3 times/week for 8 weeks
# [3] = test system: bortezomib-treated Wistar rats; experiment: Bortezomib study, therapeutic paradigm; settings: for Allodynia / Body Weight / DRG/nerve pathology / IENFD / NCS: Bortezomib Therapeutic setting, 0.2 mg/kg (i.v.) 3 times/week for 8 weeks
# [4] = Protocol: The stability of Compound A was followed by HPLC analysis. […] Additionally a stability study was performed over 3 years on industrial batch of dried material.
# proteasome activity = experiment: Proteasome inhibition study in bortezomib-treated rats; type: in vivo, Wistar rats; settings: co-administration at different doses, preventive or therapeutic settings
# Protocol: At baseline and after 8 weeks of treatment, caudal and digital nerve conduction and potential amplitude studies, behavioral tests (Dynamic) and blood collection to study proteasome inhibition were performed. After 8 weeks of treatment, tissue samples (sciatic and caudal nerves, DRG and foot pads) were collected and analyzed to study morphological parameters and intraepidermal nerve fibre density (IENFD).
# At baseline and after 8 weeks of treatment, caudal and digital nerve conduction and potential amplitude studies and blood collection to study proteasome inhibition were performed. […] After 8 weeks of treatment, sciatic nerves, caudal nerves, DRG and foot pads were collected from all animals and analyzed to study morphological parameters and IENFDs.
# healthy male subjects = type: in vivo, human; settings: for maximal decrease of mean heart rate (Holter-ECG): 1 to 3 hours after administration
# Protocol: The study was performed as a single-center, randomized, double-blind, placebo-controlled, Phase 1 study with healthy male subjects receiving single ascending oral doses of Compound A. A dose-escalation design was considered to be appropriate to investigate the safety and tolerability of this new compound in the first single dose study in humans. Within each cohort six subjects were to receive a single oral dose of Compound A and two subjects were to receive placebo on Day 1.
# Each subject received a single oral dose of either Compound A or placebo in a randomized fashion. Study drug administrations were performed in the morning of Day 1. The proper administration of the study medication was supervised by the Investigator or delegate. This included checking the oral and buccal cavity. The study medication or placebo was supplied as powder-containing gelatin capsules; they were administered orally together with 240 mL water. Subjects were dosed in a fasted state (no food was taken for at least 8 hours prior to dosing). Access to food was restricted until 4 hours after dosing.
# 12-lead ECGs were recorded on Day −1 and from pre-dose on Day 1 to 72 hours after drug administration. In addition, a Holter-ECG was recorded from about at least 12 hours prior to the planned dosing until 24 hours post-dose. Triplicate extracts (1 min interval) were taken at the same time-points when paper ECGs were taken. Vital signs (blood pressure, pulse rate, body temperature [auricular measurement]) were measured on Day −1 and then from pre-dose on Day 1 to 72 hours post-dose. 12-lead ECGs were recorded as scheduled in the study flow chart using the ECG system (Cardiosoft, Marquette Hellige). Triplicate ECGs were recorded at 36, 48 and 72 hours post-dose. The ECGs were recorded in supine position after at least 5 minutes rest or after at least 15 minutes rest at time points when ECG extracts from the Holter-ECG were done (to allow for a sufficient time period). ECGs were plotted with a paper speed of 50 mm/s and 10 mm/mV amplitude, with 10 seconds recording duration for all leads and at least 3 complexes, but preferably 5 complexes in each lead. The following ECG parameters were evaluated: heart rate, PR interval, QRS interval, QT interval, QTcB (using Bazett's correction formula) and QTcF (using Fridericia's correction formula).
# [5] = therapeutic setting, all doses, monohydrochloride salt
# [6] = crude wet material, batch #01, 2-8° C., t = 0
# [7] = crude wet material, batch #01, 2-8° C., t = 8 days
# [8] = crude wet material, batch #01, 2-8° C., t = 30 days
# [9] = crude wet material, batch #02, rt under air, t = 0
# [10] = crude wet material, batch #02, rt under air, t = 24 days
# [11] = during drying at 60° C., t = 74 hours
substance,measurement,setting,value
"3-(1-(2,3-dichloro-4-methoxyphenyl) ethyl)-1-methyl-1-(1,3,3-trimethylpiperidin-4-yl)urea monohydrochloride salt [Compound A]",F,[1],31.2%
same,T1/2 z,"[1]; iv, 1 mg/kg",1.6 h
same,Vz/F,"[1]; iv, 1 mg/kg",3.7 L/kg
same,T1/2 z,"[1]; po, 2 mg/kg",1.6 h
same,Vz/F,"[1]; po, 2 mg/kg",13.0 L/kg
same,Allodynia,[2]; Compound A dose 3,+
same,Body Weight,[2]; Compound A dose 3,+/−
same,DRG/nerve pathology,[2]; Compound A dose 3,−
same,IENFD,[2]; Compound A dose 3,+
same,NCS,[2]; Compound A dose 3,−
same,Allodynia,[2]; Compound A dose 10,+
same,Body Weight,[2]; Compound A dose 10,+/−
same,DRG/nerve pathology,[2]; Compound A dose 10,+/−
same,IENFD,[2]; Compound A dose 10,+
same,NCS,[2]; Compound A dose 10,−
same,Allodynia,[2]; Compound A dose 30,+
same,Body Weight,[2]; Compound A dose 30,+/−
same,DRG/nerve pathology,[2]; Compound A dose 30,+/−
same,IENFD,[2]; Compound A dose 30,+
same,NCS,[2]; Compound A dose 30,+/−
same,mild axonal changes in the sciatic nerve,[2]; different doses,did not alter these changes
same,DRG sensory neuron degeneration and satellite cell vacuolization,[2]; preventive setting,incomplete protection
same,digital NCV vs CTRL,"[2]; preventive setting, Compound A 30 mg/kg",no alteration
same,digital NCV vs CTRL,"[2]; preventive setting, Compound A 3 and 10 mg/kg",statistically significant reduction
same,bortezomib-induced reduction in IENFD,"[2]; preventive setting, all doses",significantly prevented
same,allodynia vs CTRL (mechanical threshold),"[2]; preventive setting, all doses, end of treatment",did not show allodynia
same,caudal NCV and caudal potential amplitude vs CTRL,"[2]; preventive setting, all doses, monohydrochloride salt",statistically significant reduction
same,digital potential amplitude vs CTRL,"[2]; preventive setting, all groups, end of treatment",No changes
same,caudal nerve pathological changes,"[2]; preventive setting, different doses","mild, not dose-dependent reduction in these pathological changes"
same,body weight difference vs. CTRL and bortezomib groups,"[2]; preventive study, at the end of treatment",not significant
same,body weight vs. CTRL and bortezomib groups,"[2]; preventive study, different doses, first few weeks until day 21",significant increase in body weight
same,Allodynia,[3]; Compound A dose 3,+
same,Body Weight,[3]; Compound A dose 3,+/−
same,DRG/nerve pathology,[3]; Compound A dose 3,−
same,IENFD,[3]; Compound A dose 3,−
same,NCS,[3]; Compound A dose 3,+/−
same,Allodynia,[3]; Compound A dose 10,+
same,Body Weight,[3]; Compound A dose 10,+/−
same,DRG/nerve pathology,[3]; Compound A dose 10,+/−
same,IENFD,[3]; Compound A dose 10,−
same,NCS,[3]; Compound A dose 10,+/−
same,Allodynia,[3]; Compound A dose 30,+
same,Body Weight,[3]; Compound A dose 30,+/−
same,DRG/nerve pathology,[3]; Compound A dose 30,+/−
same,IENFD,[3]; Compound A dose 30,−
same,NCS,[3]; Compound A dose 30,−
same,protective effects on DRG/nerve pathology,[3]; therapeutic setting,not present
same,allodynia vs CTRL (mechanical threshold),"[3]; therapeutic setting, after 5 weeks and at the end of treatment, all doses",protected
same,caudal NCV and potential amplitude vs CTRL,[3]; [5],statistically significant reduction
same,digital NCV vs CTRL,[3]; [5],statistically significant reduction only the animals treated with bortezomib alone; also recorded: Only the animals treated with bortezomib alone showed a significant reduction
same,body weight vs. CTRL and bortezomib groups,"[3]; therapeutic setting, end of treatment, Compound A 30",significant increase in body weight
same,body weight vs. CTRL and bortezomib groups,"[3]; therapeutic setting, following 10 days co-treatment",significant increase of body weight
same,digital potential amplitude vs CTRL,"[3]; therapeutic setting, highest dose of Compound A",reduction in potential amplitude
same,"Compound A, HPLC results",[4]; [6],99.60%
same,"Impurity RRT 0.97, HPLC results",[4]; [6],0.40%
same,"Compound A, HPLC results",[4]; [7],99.70%
same,"Impurity RRT 0.97, HPLC results",[4]; [7],0.29%
same,"Compound A, HPLC results",[4]; [8],99.75%
same,"Impurity RRT 0.97, HPLC results",[4]; [8],0.25%
same,"Compound A, HPLC results",[4]; [9],99.74%
same,"Impurity RRT 0.97, HPLC results",[4]; [9],0.24%
same,"Compound A, HPLC results",[4]; [10],99.73%
same,"Impurity RRT 0.97, HPLC results",[4]; [10],0.27%
same,"Compound A, HPLC results","[4]; during drying at 60° C., t = 0",99.83%
same,"Impurity RRT 0.97, HPLC results","[4]; during drying at 60° C., t = 0",0.17%
same,"Compound A, HPLC results",[4]; [11],99.78%
same,"Impurity RRT 0.97, HPLC results",[4]; [11],0.17%
same,bortezomib-induced proteasome inhibition,proteasome activity,did not impair
same,time after dosing at which pre-dose heart rate levels were reached again,healthy male subjects; 0.1 to 10 mg single oral dose,6 h
same,pulse rate,healthy male subjects; groups treated with Compound A,decrease
same,maximal decrease of mean heart rate (Holter-ECG),healthy male subjects; single oral dose 0.1 mg,5.1 bpm
same,maximal decrease of mean heart rate (Holter-ECG),healthy male subjects; single oral dose 0.3 mg,6.8 bpm
same,maximal decrease of mean heart rate (Holter-ECG),healthy male subjects; single oral dose 1.0 mg,15.9 bpm
same,maximal decrease of mean heart rate (Holter-ECG),healthy male subjects; single oral dose 10 mg,18.3 bpm
